Assay [1] can be described thus: Inhibition of ENO1 in overexpressed human D423 cells incubated for 5 days in presence of 1 % oxygen by crystal violet staining based spectrophotometry.
A short description of assay [2]: Inhibition of ENO1 in overexpressed human D423 cells incubated for 5 days in presence of 21 % oxygen by crystal violet staining based spectrophotometry.
The nature of assay [3]: Inhibition of ENO1 in wild-type human LN319 cells incubated for 5 days in presence of 21 % oxygen by crystal violet staining based spectrophotometry.
The nature of assay [4]: Inhibition of ENO1 in wild-type human LN319 cells incubated for 5 days by crystal violet staining based spectrophotometry.
Assay [5] in a line: Inhibition of ENO1 in wild-type human LN319 cells incubated for 5 days in presence of 1 % oxygen by crystal violet staining based spectrophotometry.
A short description of assay [6]: Inhibition of ENO1 in overexpressed human D423 cells incubated for 5 days by crystal violet staining based spectrophotometry.

This passage reports IC50 results from BindingDB's records for doi:10.1021/acsmedchemlett.0c00203 (University of Texas Md Anderson Cancer Center, 2020).

pIC50: −log10 of the molar value.

As a reminder, the pIC50 is the IC50 on a negative log10 scale, so that one unit is a factor of ten. With `CC(=O)ON1CCCC(P(=O)(NCc2ccccc2)OCc2ccc([N+](=O)[O-])o2)C1=O` (configuration not stated), the pIC50 in assay [1] was 5.24; in assay [2] it was 4.59; in assay [3], 4.68.
For the compound `CC(C)(C)C(=O)OCOP(=O)(OCOC(=O)C(C)(C)C)C1CCCN(O)C1=O` (configuration not stated), the pIC50 was 5.55 in assay [1]; 5.67 in assay [4]; 6.14 in assay [2]; 5.62 in assay [3]; 5.74 in assay [5]; 6.22 in assay [6].
`O=C1C(P(=O)(O)O)CCCN1O` (configuration not stated): the pIC50 in assay [4] and in assay [6] was less than 4.00 each time.
For the compound `Cn1c(COP(=O)(NCCBr)NCCBr)cnc1[N+](=O)[O-]` [Evofosfamide], the pIC50 in assay [1] is 6.52; in assay [2] it was 5.59; in assay [3], 5.32; in assay [5], 6.05.
Turning to `CC(C)(C)C(=O)OCOP(=O)(NCc1ccccc1)C1CCCN(O)C1=O` (configuration not stated), the pIC50 in assay [4] and in assay [6] was 5.40 throughout.
